Experiments:
[1] = system: Perennial rye grass, crabgrass, red root pigweed, mustard; assay: Preliminary Herbicide Seed Germination Test; conditions: each rated 1 (no injury) to 5 (no seedlings emerged)
[2] = system: egg of the two-spotted mite; assay: Mite Ovicide Test; assay type: in vivo, Tetranychus urticae (Koch); design: key to Mite Ova rating: 1: no mortality; 3: an approximately 50% mortality; 5: 100% mortality; conditions: spray on eggs, 4 days
From the text: (§1) The test procedures were as follows:
The plants were allowed to dry thoroughly.
(§2) Compositions were rated on the basis of percent kill with a rating of 1 indicating no mortality; 3 signifying an approximately 50% mortality and 5 indicating 100% mortality at the indicated dosage.

Bean = assay: Phytotoxicity, bean; conditions: 2500 ppm, 10 days
Method: (§4) Experiments were also conducted to determine the phytotoxicity of representative enol ester compositions with respect to healthy fresh plants. […] The test plants were sprayed in accordance with the procedure described above for the Mite Foliage Spray Test so as to deliver approximately 100 milliliters of test solution to the leaves of each plant tested. The sprayed plants and controls were set aside for approximately 1 hour to allow the solutions to dry and were then placed in the greenhouse. After 10 days the plants were visually inspected to determine the extent of foliage injury. A rating of 1 indicates no perceptible injury; 5 indicates the plant was dead and ratings of 2, 3 and 4 indicate intermediate degrees of injury based upon the number and extent to which leaves were injured.

Tomato = assay: Phytotoxicity, tomato; conditions: 2500 ppm, 10 days
Method: as §4

[3] = system: adults and nymphal stages of the two-spotted mite; assay: Mite Foliage Spray Test; assay type: in vivo, Tetranychus urticae (Koch); design: key: 1: no mortality; 3: an approximately 50% mortality; 5: 100% mortality; conditions: 4 days
From the text: as §1, §2

Cotton = assay: Phytotoxicity, cotton; conditions: 2500 ppm, 10 days
Method: as §4

Corn = assay: Phytotoxicity, corn; conditions: 2500 ppm, 10 days
Method: as §4

[4] = system: eggs of the two-spotted mite; assay: Fumigant toxicity, Method 1 (deposit in pie plate); assay type: in vivo; conditions: deposit approx. 160 μg per square cm, 4 days
Method: (§3) Two methods were used to evaluate fumigant properties:
Method 1: Fifty mg. of each compound were dissolved in 5 ml. of acetone and poured into a 20 cm. (bottom diameter) Pyrex No. 210 pie plate. The acetone was allowed to evaporate leaving a deposit of approximately 160 μg. per square cm. The plate was then placed in the bottom of a 50 pound metal lard container (about 30 cm. in diameter and 34 cm. high). Two excised bean plants, held in a 250 ml. Erlenmeyer flask containing 100 ml. of tap water and infested with eggs of the two-spotted mite, were placed in the center of the pie plate. The container was held in the insectary (temperature 80±5° F., 50±5% R. H.) for four days before mortality determinations were made.

[5] = system: egg forms of the two-spotted mite; assay: Fumigant toxicity, Method 2 (treated plants near untreated infested plants); assay type: in vivo; conditions: 500 ppm dip, 4 days
Method: as §3
Method 2: Excised bean plants infested with egg forms of the two-spotted mite were dipped in an aqueous preparation (500 ppm) of the test compound. The treated plants were transferred to 250 ml. Erlenmeyer flasks containing 100 ml. of tap water. Four flasks holding treated plants were evenly spaced around a similar flask in which were placed untreated mite-infested plants so that the leaves of the treated foliage were in close proximity (1-3 inches) to the untreated plants. Four days later mortality determinations were made.

two-spotted mite = assay: Small scale field tests, mite control on Tendergreen bean plants; assay type: in vivo, Tetranychus urticae (Koch)
Method: Selected enol ester compositions were evaluated in small scale field tests to determine whether the excellent miticidal properties observed in greenhouse testing would be obtained under actual conditions of field use.
In Test I 500 ppm aqueous dispersions were prepared as described above. In tests II and III various dilutions of the test compounds ranging from 125 ppm to 1000 ppm were prepared and used. In each case the test dispersions were applied to a minimum of two replicate test plots measuring five feet in length and containing healthy young Tendergreen bean plants which had previously been infested with two-spotted mite (Tetranychus urticae (Koch)). Dispersions of the test compounds at each concentration level were applied to individual replicate plots using 1/2 gallon garden sprayers equipped with spray nozzles to apply approximately 250 ml. of test solution to each replicate. The effectiveness of the treatment was determined at intervals following application, by microscopic examination of five leaves selected at random from each replicate plot. The degree of effectiveness for each leaf was rated on a scale of from 1 to 5 with 1 indicating no control in reference to a standard sprayed with a mixture of solution less test compound and 5 indicating complete control. The results obtained from inspection of sample leaves were then averaged to give a numerical indication of the degree of control for each compound tested at the concentration applied.

[6] = rating/maximum 20: 100 ppm only, four species
[7] = rating/maximum 40: 100 and 1000 ppm, four species, 10-12 days
[8] = Test I, 500 ppm, 4 days, scale 1 (no control) to 5 (complete control)
[9] = Test I, 500 ppm, 8 days, scale 1 to 5
[10] = Test II, 250 ppm, 3 days, scale 1 to 5
[11] = Test II, 250 ppm, 7 days, scale 1 to 5
[12] = Test II, 500 ppm, 3 days, scale 1 to 5
[13] = Test II, 500 ppm, 7 days, scale 1 to 5
[14] = Test II, 1000 ppm, 3 days, scale 1 to 5
[15] = Test II, 1000 ppm, 7 days, scale 1 to 5
[16] = rating/maximum 30: 100 and 1000 ppm, crabgrass omitted

| Molecule | Mite Ova rating [2] | Mite Adult rating [3] | Herbicide (total preemergence rating) [1, 7] | Average mite control rating, 1st Reading (two-spotted mite; [8]) | Average mite control rating, 2nd Reading (two-spotted mite; [9]) | further results |
| --- | --- | --- | --- | --- | --- | --- |
| 2-(2',5'-Dimethylphenyl)-3-(neodecanoyloxy)indone | 3 (an approximately 50% mortality) | 1 |  |  |  | Herbicide (total preemergence rating) [1, 6]: 4/20; Phytotoxicity Rating, Bean (Bean): 1; Phytotoxicity Rating, Tomato (Tomato): 1; Phytotoxicity Rating, Cotton (Cotton): 1; Phytotoxicity Rating, Corn (Corn): 1 |
| 2-(2'-Methylphenyl)-3-(neodecanoyloxy)indone | 1 | 1 |  |  |  | Herbicide (total preemergence rating) [1, 6]: 4/20; Phytotoxicity Rating, Bean (Bean): 1; Phytotoxicity Rating, Tomato (Tomato): 1; Phytotoxicity Rating, Cotton (Cotton): 1; Phytotoxicity Rating, Corn (Corn): 1 |
| Cc1cc(C)c(C2=C(OC(=O)OC(C)C)c3ccccc3C2=O)c(C)c1 [2-(2',4',6'-Trimethylphenyl)-3-(Isopropoxycarbonyloxy)indone] | 5 (100% mortality) | 5 (100% mortality) |  |  |  | Herbicide (total preemergence rating) [1, 6]: 18/20; Fumigant Toxicity Method 1 [4]: 5 (80-100% control); Fumigant Toxicity Method 2 [5]: 3 |
| CC(C)(C)C(=O)OC1=C(c2c(Cl)cccc2Cl)C(=O)c2ccccc21 [2-(2',6'-Dichlorophenyl)-3-(pivaloyloxy)indone] | 5 (100% mortality) | 5 (100% mortality) | 30/40 | 3.5 | 4.0 | Fumigant Toxicity Method 2 [5]: 3; Average mite control rating, 1st Reading (two-spotted mite; [10]): 2.3; Average mite control rating, 2nd Reading (two-spotted mite; [11]): 3.7; Average mite control rating, 1st Reading (two-spotted mite; [12]): 3.0; Average mite control rating, 2nd Reading (two-spotted mite; [13]): 3.3; Average mite control rating, 1st Reading (two-spotted mite; [14]): 3.3; Average mite control rating, 2nd Reading (two-spotted mite; [15]): 4.7 |
| Cc1cc(C)c(C2=C(OC(=O)c3ccccc3Cl)c3ccccc3C2=O)c(C)c1 [3-(2-Chlorobenzoyloxy)-2-(2',4',6'-trimethylphenyl)indone] | 5 (100% mortality) | 5 (100% mortality) | 32/40 | 2.5 |  |  |
| O=C(OC1=C(c2c(Cl)cccc2Cl)C(=O)c2ccccc21)c1ccccc1Cl [3-(2-chlorobenzoyloxy)-2-(2',6'-dichlorophenyl)indone] | 5 (100% mortality) | 5 (100% mortality) | 30/40 | 3.0 | 2.5 |  |
| Cc1cc(C)c(C2=C(OC(=O)c3cccc(Cl)c3)c3ccccc3C2=O)c(C)c1 [3-(3-Chlorobenzoyloxy)-2-(2',4',6'-trimethylphenyl)indone] | 5 (100% mortality) | 5 (100% mortality) | 29/40 | 1.5 | 2.0 |  |
| O=C(OC1=C(c2c(Cl)cccc2Cl)C(=O)c2ccccc21)c1cccc(Cl)c1 [3-(3-Chlorobenzoyloxy)-2-(2',6'-dichlorophenyl)indone] | 5 (100% mortality) | 5 (100% mortality) | 32/40 | 3.0 | 3.0 |  |
| Cc1ccc(C(=O)OC2=C(c3c(Cl)cccc3Cl)C(=O)c3ccccc32)cc1 [3-(4-Methylbenzoyloxy)-2-(2',6'-dichlorophenyl)indone] | 5 (100% mortality) | 5 (100% mortality) |  |  |  | Herbicide (total preemergence rating) [1, 16]: 22/30 |
| Cc1cc(C)c(C2=C(OC(=O)c3ccc([N+](=O)[O-])cc3)c3ccccc3C2=O)c(C)c1 [3-(4-Nitrobenzoyloxy)-2-(2',4',6'-trimethylphenyl)indone] | 5 (100% mortality) | 5 (100% mortality) |  |  |  | Herbicide (total preemergence rating) [1, 16]: 26/30 |
| O=C(OC1=C(c2c(Cl)cccc2Cl)C(=O)c2ccccc21)c1ccc([N+](=O)[O-])cc1 [3-(4-Nitrobenzoyloxy)-2-(2',6'-dichlorophenyl)indone] | 5 (100% mortality) | 5 (100% mortality) |  |  |  | Herbicide (total preemergence rating) [1, 16]: 25/30 |
| O=C(OC1=C(c2c(Cl)cccc2Cl)C(=O)c2ccccc21)c1ccccc1 [3-(Benzoyloxy)-2-(2',6'-dichlorophenyl)indone] | 5 (100% mortality) | 5 (100% mortality) | 32/40 |  |  |  |
| COc1cc(C)c(C)c(C)c1C1=C(OC(=O)C(C)(C)C)c2ccccc2C1=O [3-(Pivaloyloxy)-2-(6'-methoxy-2',3',4'-trimethylphenyl)indone] | 1 | 1 | 16/40 |  |  |  |
| CC(=O)OC1=C(c2ccccc2Br)C(=O)c2ccccc21 [3-Acetoxy-2-(2'-bromophenyl)indone] | 5 (100% mortality) | 5 (100% mortality) | 19/40 |  |  |  |
| Cc1cc(C)c(C2=C(OC(=O)c3ccccc3)c3ccccc3C2=O)c(C)c1 [3-Benzoxyloxy-2-(2',4',6'-trimethylphenyl)indone] | 5 (100% mortality) | 5 (100% mortality) | 31/40 |  |  |  |
| Cc1cc(C)c(C2=C(OC(=O)OC3=C(c4c(C)cc(C)cc4C)C(=O)c4ccccc43)c3ccccc3C2=O)c(C)c1 [Bis[2-(2',4',6'-Trimethylphenyl)Indon-3-yl]Carbonate] | 5 (100% mortality) | 5 (100% mortality) |  |  |  | Herbicide (total preemergence rating) [1, 6]: 15/20 |
| Cc1cc(C)c(C2C(=O)c3ccccc3C2=O)c(C)c1 [Compound A, 2-(2',4',6'-trimethylphenyl)-1,3-indandione, reference compound] |  |  |  | 1.0 | 1.0 | Average mite control rating, 1st Reading (two-spotted mite; [10]): 1.0; Average mite control rating, 2nd Reading (two-spotted mite; [11]): 1.3; Average mite control rating, 1st Reading (two-spotted mite; [12]): 2.7; Average mite control rating, 2nd Reading (two-spotted mite; [13]): 1.7; Average mite control rating, 1st Reading (two-spotted mite; Test III, 250 ppm, 3 days, scale 1 to 5): 1.0; Average mite control rating, 2nd Reading (two-spotted mite; Test III, 250 ppm, 7 days, scale 1 to 5): 2.0; Average mite control rating, 1st Reading (two-spotted mite; Test III, 500 ppm, 3 days, scale 1 to 5): 1.3; Average mite control rating, 2nd Reading (two-spotted mite; Test III, 500 ppm, 7 days, scale 1 to 5): 1.7; Average mite control rating, 1st Reading (two-spotted mite; Test III, 1000 ppm, 3 days, scale 1 to 5): 3.3; Average mite control rating, 2nd Reading (two-spotted mite; Test III, 1000 ppm, 7 days, scale 1 to 5): 3.3; Average mite control rating, 3rd Reading (two-spotted mite; Test III, 1000 ppm, 21 days, scale 1 to 5): 2.3 |
| O=C1c2ccccc2C(=O)C1c1c(Cl)cccc1Cl [Compound B, 2-(2',6'-dichlorophenyl)-1,3-indandione, reference compound] |  |  |  | 1.5 | 2.0 | Average mite control rating, 1st Reading (two-spotted mite; [10]): 3.7; Average mite control rating, 2nd Reading (two-spotted mite; [11]): 2.3; Average mite control rating, 1st Reading (two-spotted mite; [12]): 3.0; Average mite control rating, 2nd Reading (two-spotted mite; [13]): 3.3; Average mite control rating, 1st Reading (two-spotted mite; [14]): 2.0; Average mite control rating, 2nd Reading (two-spotted mite; [15]): 3.3 |
